In one assay the target is SHP-1 (Homo sapiens, UniProt P29350). Conditions: reported, Chen et al., 2006; cited from earlier work.
For assay [1], the system named is THP-1 macrophages. The assay is described as follows: SHP-1 inhibitor effect on phagocytosis of IgG-opsonized particles. It counts as cell-based, human. On the procedure: For phagocytosis assays with CD47 attached particles at 100 nm to 1.1 μm diameter were IgG-opsonizied. THP-1 macrophage, PMA activated were treated with 0-0.5 μM NSC-87877 an SHP-1 Inhibitor (gift from Frank L. Conlon) 5 minutes prior to the addition of IgG-opsonizied particles. Phagocytosis assay occurred at 37° C. for 45 minutes and then fixed for 5 minutes with 5% formaldehyde as described for the phagocytosis assay (Fisher Scientific).
In order to specifically block SHP-1, an inhibitor NSC-87877 was used with a reported high specificity to SHP-1 (Chen et al., 2006, Mol. Pharmacol. 70(2):562-70; Langdon et al., 2007, Development 134(22):4119-30). […] The uptake of these particles was measured as the number of particles ingested per phagocyte.

In assay [2] the test system is THP-1 macrophages. In kind it is cell-based, human.
In assay [3] the test system is THP-1 macrophages. As to the kind of experiment: Phagocytosis of IgG-opsonized streptavidin beads with or without hCD47 by THP-1 macrophages. It counts as cell-based, human. As for the experimental part:
The extracellular immunoglobulin-like domains of human CD47 (hCD47) was recombinantly expressed with a spacer domain (Brown et al., 1994, Protein Eng. 7:515-21; Brown et al., 1998, J. Exp. Med. 188:2083-90) plus a C-terminal biotinylation site. […] The beads were opsonized by pretreatment with anti-streptavidin to again induce FcR-mediated phagocytosis (for 45 minutes at 37° C.), and non-engulfed beads were detected with a flourescein anti-Fc against the IgG-opsonin. The number of adherent IgG-opsonized beads per phagocyte was independent of hCD47 (not shown).
Human CD47 gave a Ki at high opsonin of 20 CD47/μm^2, which appears ˜10-fold less than normal human RBC densities of CD47. […] A higher baseline level of bead phagocytosis versus RBCs could redirect the fact that stiffer targets are more readily engulfed (Beningo et al., 2002, J. Cell Sci. 115:849-856).
For phagocytosis assays, macrophages were plated in 4 cm^2, or 2 cm^2 Lab-Tek II Chambered Coverglass (Nalge Nunc International, Naperville, Ill.) at 1.5×10^5/cm^2. Streptavidin polystyrene beads of different radius: 3.5 μm, 1.1 μm, 160 nm (Spherotech) and 100 nm (Ademtech) were added to macrophages at a ratio of 2:1, 20:1, 277:1, and 2206:1 respectively and incubate at 37° C. for 45 min. […] Non-phagocytosed beads were washed with PBS. Cells were fixed with 5% formaldehyde (Fisher Scientific) for 5 minutes, followed by immediate replacement with PBS. For differentiation of non-internalized beads, beads were labeled with a primary antibody, rabbit anti-streptavidin (Sigma) at 1:1000 in PBS for 20 min at 25° C. A second antibody, anti-rabbit R-PE (Sigma) was added at 1:1000 in PBS to the cells and incubated for an additional 20 minutes at 25° C. Cells were then washed with PBS/0.4% BSA and then quantified by light and fluorescent microscopy. At least 200 cells were scored per well and experiments were repeated at least three times. […]
Beads were opsonized at saturating densities of IgG, and over a 20-fold range of CD47 densities, the number of internalized beads per THP-1 was measured. […]

The subject of assay [4] is THP-1 macrophages. As to the kind of experiment: Phagocytosis of IgG-opsonized sheep RBCs by THP-1 macrophages. In kind it is cell-based, human. From the text:
Phagocytosis by the human-derived THP-1 macrophages of IgG-opsonized RBCs was studied by imaging in DIC microscopy. […] RBC membranes were prelabeled with PKH26, and non-engulfed RBCs were labeled with a fluorescein-labeled antibody against the Fc of the IgG-opsonin.
To more directly assess the function of the IIA isoform, the effects of both knockdown and overexpression were functionally studied.

Assay [5] concerns A549 human lung epithelial cells. In kind it is cell-based. Conditions: blebbistatin at various concentrations; MOI 270.
In assay [6] the test system is non-muscle myosin IIA at the phagocytic synapse of THP-1 macrophages. As to the kind of experiment: Protein localization to the phagocytic synapse (immunofluorescence). In kind it is cell-based, human. Conditions: blebbistatin 50 μM, 10 min pre-incubation. As for the experimental part:
[…] Opsonized beads of different sizes were added to THP-1 cells, PMA treated and immediately placed at 4° C. for 10 min to synchronize phagocytosis. […] For studies involving blebbistatin (EMD Biosciences), macrophages were treated for 10 min at 4° C. prior to temperature increase to 37° C. or for 45 min and 37° C. Macrophages treated with DMSO were used to verify no solvent effects.
Immunostaining was performed by permeabilization with 0.1% Triton X-100 in PBS for 20 min before blocking for 1 h with 5% BSA in PBS. Staining with primary antibodies was carried out for 1 h at room temperature in PBS. Following washing, samples were incubated with appropriate PE-conjugated secondary antibodies (1:1000). To label cytoskeletal proteins at the phagocytic synapse, primary Ab's prepared with Zenon Alexa 488 or Zenon Alexa 647 Fab labeling kits (Invitrogen) labeled for 45 min at room temperature. Cells were immediately fixed using 5% formaldehyde for 20 minutes and washed with PBS. Samples were analyzed by differential interference contrast (DIC) and fluorescence microscopy.
Images were acquired with an inverted microscope (Olympus; IX71) with a 60× (oil, 1.4 NA) objective using a Cascade CCD camera (Photometrics, Tuscon, Ariz.). Image acquisition was performed with Image Pro software (Media Cybernetics, Silver Spring, Md.). […]

Chain of SHP-1 (P29350 whole entry): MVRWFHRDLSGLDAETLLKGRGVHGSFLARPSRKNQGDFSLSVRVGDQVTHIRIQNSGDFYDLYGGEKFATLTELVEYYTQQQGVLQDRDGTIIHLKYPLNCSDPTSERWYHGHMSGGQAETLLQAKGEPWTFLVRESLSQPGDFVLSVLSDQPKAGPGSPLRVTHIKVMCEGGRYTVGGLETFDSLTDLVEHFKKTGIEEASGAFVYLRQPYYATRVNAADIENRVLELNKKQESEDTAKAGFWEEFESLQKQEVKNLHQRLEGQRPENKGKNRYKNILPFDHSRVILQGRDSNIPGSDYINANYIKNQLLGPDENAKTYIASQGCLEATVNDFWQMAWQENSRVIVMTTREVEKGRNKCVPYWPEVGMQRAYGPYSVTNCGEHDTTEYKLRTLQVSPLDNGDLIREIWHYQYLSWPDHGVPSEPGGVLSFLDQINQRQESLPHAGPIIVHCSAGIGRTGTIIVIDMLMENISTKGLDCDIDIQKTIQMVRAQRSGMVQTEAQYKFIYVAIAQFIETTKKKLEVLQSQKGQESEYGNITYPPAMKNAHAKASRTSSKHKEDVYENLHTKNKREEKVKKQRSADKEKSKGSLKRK

Regarding `O=S(=O)(O)c1ccc2cc(N=Nc3cc(S(=O)(=O)O)c4cccnc4c3O)ccc2c1` [NSC-87877], the IC50 – broadly, the concentration needed to halve the response being measured – at SHP-1 was 0.5 µM. The “particles ingested per phagocyte, hCD47 particles” value in the assay on THP-1 macrophages [1] (62.5 nM NSC-87877, 100 nm IgG-opsonized particles with hCD47) is listed as “an increase of ingested particles”; in the assay with THP-1 macrophages [1] (NSC-87877, 1.1 μm IgG-opsonized particles with hCD47) it was “increase in uptake comparable to uncoated IgG-opsonizied particles”. Besides, the “particles ingested per phagocyte, beads without hCD47” value in the assay on THP-1 macrophages [1] (62.5 nM NSC-87877, 100 nm IgG-opsonized particles without hCD47) is “no statistical difference”.
Regarding `Cc1ccc2c(c1)C(=O)C1(O)CCN(c3ccccc3)C1=N2` (stereo not drawn) [blebbistatin], in the assay with THP-1 macrophages [2] (50 μM Blebbistatin vs DMSO), the “transduction of control lentiviral particles” value is listed as “inhibited transduction” and the “transduction of overexpressed hCD47 lentiviral particles” value is “no changes were observed”. Moreover, in the assay with THP-1 macrophages [2] (blebbistatin at various concentrations, MOI 700), the “transduction efficiency of control lentivirus” value is “dose dependent response”. Besides, the “uptake of IgG-opsonized particles by THP-1” value with THP-1 macrophages [3] (50 μM blebbistatin, 100 nm particles, vs DMSO) is on record as “decrease in uptake”. The “uptake of IgG-opsonized particles by THP-1” value in the assay on THP-1 macrophages [3] (blebbistatin, 1.1 μm particles) was “comparable results”. Also, the “phagocytosis of CD47-null beads” value in the assay with THP-1 macrophages [3] (blebbistatin, uncoated approximately 2.1 μm beads) is listed as “inhibited phagocytosis of CD47-null beads to a level similar as hCD47 beads”. Further, in the assay with THP-1 macrophages [4] (5 μM blebbistatin), the “inhibition of ShRBC phagocytosis by GFP-NMM IIA expressing THP-1” value was around 50%. Also, the “engulfment of sheep RBCs by THP-1 macrophages” value in the assay on THP-1 macrophages [4] (compared with CD47 on human RBCs) is reported as “inhibited”. The inhibition constant (Ki) (in general, a dissociation constant, usually derived from enzyme kinetics or from competition with a known ligand) on THP-1 macrophages [4] (dose-response, sheep RBCs engulfed by THP-1 macrophages, read-out: Ki-blebb for blebbistatin inhibition of phagocytosis) was 5 µM. Besides, the “lentivirus transduction in A549 cells” value in assay [5] was “no effect”. For the same compound, the “enrichment of NMM IIA at synaptic contacts with sheep RBC targets” value in assay [6] was “inhibited enrichment of NMM IIA”.

The values above are taken from patent US9050269B2, “Protection of virus particles from phagocytosis by expression of CD47” (priority 2009, dated 2015).
